Data on 19 molecules can be found in US4874777A, “Leukotriene antagonists” (Eli Lilly and Company, priority 1987, dated 1989).

The subject of the test is LTD4 evoked ileal contractions. The test is described as follows: LTD4 antagonism in isolated guinea pig ileum (inhibition of LTD4 evoked ileal contractions). The format is cell-based, guinea pig (male, Hartley). To be noted: Cavia porcellus; for IC50: 50% inhibition of LTD4 responses, interpolated by linear regression from 2-4 concentrations; for inhibition at 0.1 µM: compound concentration 1 × 10^-7 M; for inhibition at 0.1 µM / inhibition at 0.01 µM / inhibition at 0.03 µM / inhibition at 0.003 µM / inhibition at 0.3 µM: read-out: Percent inhibition of LTD4 evoked ileal contractions; for inhibition at 0.01 µM: compound concentration 1 × 10^-8 M; for inhibition at 0.03 µM: compound concentration 3 × 10^-8 M; for inhibition at 0.003 µM: compound concentration 3 × 10^-9 M; for inhibition at 0.3 µM: compound concentration 3 × 10^-7 M. The procedure:
Male, Hartley guinea pigs weighing 200-450 grams were killed by decapitation. A section of terminal ileum was removed, the lumen cleaned, and the tissue divided into 2.5 cm. segments. The ilea were mounted in 10 ml. tissue baths containing Krebs-bicarbonate solution of the following composition in mmoles/liter: KCl, 4.6; CaCl2 ·H2 O, 1.2; KH2 PO4, 1.2; MgSO4 ·7H2 O, 1.2; NaCl, 118.2; NaHCO3, 24.8; and dextrose, 10.0. The bath fluid was maintained at 37° C. and aerated with 95 percent oxygen and 5 percent CO2. In addition, the buffer contained 1×10^-6 M atropine to reduce ileal spontaneous activity. Isometric measurements were made with a Grass FTO3C force-displacement transducer and recorded on a Gras polygraph as change in grams of force. A passive force of 0.5 g. was applied to the tissues. After an appropriate equilibration period, single submaximal control responses to pure LTD4 were obtained. Following a five minute exposure of the ileum to an experimental drug, the control concentration of LTD4 was added to the tissue bath. The response of the ileum to LTD4 in the presence of the drug was compared to the response in the absence of the drug. Various degrees of LTD4 antagonism were obtained using 2-4 different concentrations of an experimental compound on a single ileum.

For orientation: IC50 means the point on the concentration scale where inhibition reaches its midpoint. A high value points to lower potency. By inhibition is commonly meant the drop in the measured response relative to a control, in per cent. Regarding `CCCc1c(COc2cccc(C(=O)CCCc3nnn[nH]3)c2)ccc(C(C)=O)c1O` [Example 18, 1-{3-[(4-Acetyl-3-hydroxy-2-propylphenyl)methoxy]phenyl}-4-(1H-tetrazol-5-yl)-1-butanone], the IC50 is 0.0182 µM, the inhibition at 0.1 µM came out at 84%, the inhibition at 0.01 µM came out at 34% and the inhibition at 0.03 µM worked out at 65%.
With `CCCc1c(COc2ccc(C(=O)CC(C)(C)CC(=O)O)cc2)ccc(C(C)=O)c1O` [Example 6, 4-[(4-Acetyl-3-hydroxy-2-propylphenyl)methoxy]-β,β-dimethyl-δ-oxobenzenepentanoic acid], the IC50 was 0.0186 µM, the inhibition at 0.1 µM is 78%, the inhibition at 0.01 µM was found to be 41% and the inhibition at 0.003 µM is 16%.
Turning to `CCCc1c(COc2ccc(C(=O)CCCc3nnn[nH]3)c(O)c2)ccc(C(C)=O)c1O` [Example 13, 1-{4-[(4-Acetyl-3-hydroxy-2-propylphenyl)methoxy]-2-hydroxyphenyl}-4-(1H-tetrazol-5-yl)-1-butanone], the IC50 was 0.0245 µM, the inhibition at 0.01 µM worked out at 28% and the inhibition at 0.3 µM came out at 82%.
As to `CCCc1c(COc2ccc(C(=O)Cc3nnn[nH]3)cc2)ccc(C(C)=O)c1O` [Example 8, 1-{4-[(4-acetyl-3-hydroxy-2-propylphenyl)methoxy]phenyl}-2-(1H-tetrazol-5-yl)ethanone], the 50% inhibitory concentration (IC50) was 0.0219 µM, the inhibition at 0.01 µM was 40% and the inhibition at 0.03 µM was 54%.
Consider `CCCc1c(COc2ccc(C(=O)CCCCc3nnn[nH]3)cc2)ccc(C(C)=O)c1O` [Example 11, 1-{4-[(4-Acetyl-3-hydroxy-2-propylphenyl)methoxy]phenyl}-5-(1H-tetrazol-5-yl)-1-pentanone], for which it took 0.0245 µM to reach half-maximal inhibition (IC50), the inhibition at 0.01 µM is 43% and the inhibition at 0.03 µM is 51%.
Molecule `CCCc1c(COc2ccc3c(c2)C(=O)C(CC(=O)O)CC3)ccc(C(C)=O)c1O` (stereo not shown) [Example 29, 7-[(4-Acetyl-3-hydroxy-2-propylphenyl)methoxy]-1,2,3,4-tetrahydro-1-oxo-2-naphthaleneacetic acid] had a half-maximal inhibitory concentration (IC50) of 0.0759 µM.
For the molecule `CCCc1c(COc2ccc(C(=O)CCC(=O)O)cc2)ccc(C(C)=O)c1O` [Example 1, 4-[(4-Acetyl-3-hydroxy-2-propylphenyl)methoxy]-γ-oxobenzenebutanoic acid], the IC50 was 0.0331 µM, the inhibition at 0.3 µM turned out to be 97% and the inhibition at 0.03 µM turned out to be 48%.
In the case of `CCCc1c(COc2ccc(C(=O)CC3(CC(=O)O)CCCC3)cc2)ccc(C(C)=O)c1O` [Example 24, 1-(2-{4-[(4-Acetyl-3-hydroxy-2-propylphenyl)methoxy]phenyl}-2-oxoethyl)cyclopentaneacetic acid], the IC50 was 0.0135 µM, the inhibition at 0.1 µM was 85%, the inhibition at 0.01 µM worked out at 35% and the inhibition at 0.03 µM worked out at 74%.
Consider `CCc1c(COc2ccc(C(=O)CC(C)(C)Cc3nnn[nH]3)cc2)ccc(C(C)=O)c1O` [Example 16, 1-{4-[(4-Acetyl-3-hydroxy-2-ethylphenyl)methoxy]phenyl}-3,3-dimethyl-4-(1H-tetrazol-5-yl)-1-butanone], for which inhibition was half-maximal at 0.00479 µM (IC50), the inhibition at 0.1 µM amounted to 95%, the inhibition at 0.01 µM stood at 63% and the inhibition at 0.003 µM came to 41%.
As for `CCCc1c(COc2ccc(C(=O)CCCCC(=O)O)cc2)ccc(C(C)=O)c1O` [Example 5, 4-[(4-Acetyl-3-hydroxy-2-propylphenyl)methoxy]-ε-oxobenzenehexanoic acid], the IC50 is 0.0158 µM, the inhibition at 0.1 µM amounted to 86%, the inhibition at 0.01 µM amounted to 40% and the inhibition at 0.03 µM was determined as 63%.
Consider `CCCc1c(COc2ccc(C(=O)CCc3nnn[nH]3)cc2)ccc(C(C)=O)c1O` [Example 9, 1-{4-[(4-Acetyl-3-hydroxy-2-propylphenyl)methoxy]phenyl}-3-(1H-tetrazol-5-yl)-1-propanone], for which half-maximal inhibition (IC50) required 0.0263 µM, the inhibition at 0.1 µM was determined as 85%, the inhibition at 0.01 µM stood at 25% and the inhibition at 0.3 µM worked out at 91%. For the same molecule, the inhibition at 0.03 µM was found to be 54%.
In the case of `CCCc1c(COc2ccc(C(=O)CCCCCc3nnn[nH]3)cc2)ccc(C(C)=O)c1O` [Example 19, 1-{4-[(4-Acetyl-3-hydroxy-2-propylphenyl)methoxy]phenyl}-6-(1H-tetrazol-5-yl)-1-hexanone], the IC50 was 0.0324 µM, the inhibition at 0.1 µM amounted to 80% and the inhibition at 0.03 µM came out at 47%.
As for `CCCc1c(COc2ccc(C(=O)CCCC(=O)O)cc2)ccc(C(C)=O)c1O` [Example 7, 4-[(4-Acetyl-3-hydroxy-2-propylphenyl)methoxy]-δ-oxobenzenepentanoicacid], the IC50 was 0.0372 µM, the inhibition at 0.1 µM turned out to be 68% and the inhibition at 0.01 µM was 17%.
With `CCCc1c(COc2ccc3c(c2)CCC(CC(=O)O)C3=O)ccc(C(C)=O)c1O` (stereo not shown) [Example 28, 6-[(4-Acetyl-3-hydroxy-2-propylphenyl)methoxy]-1,2,3,4-tetrahydro-1-oxo-2-naphthaleneacetic acid], the half-maximal inhibitory concentration (IC50) is 0.0102 µM.
With `CCc1c(COc2ccc(C(=O)CC(C)(C)CC(=O)O)cc2)ccc(C(C)=O)c1O` [Example 23, 4-[(4-Acetyl-2-ethyl-3-hydroxyphenyl)methoxy]-β,β-dimethyl-δ-oxobenzenepentanoic acid], 0.0214 µM corresponded to half-maximal inhibition (IC50), the inhibition at 0.1 µM was determined as 88%, the inhibition at 0.01 µM stood at 25% and the inhibition at 0.03 µM is 66%.
Turning to `CCCc1c(COc2ccc(C(=O)C(C)Cc3nnn[nH]3)cc2)ccc(C(C)=O)c1O` (stereo not shown) [Example 14, 1-{4-[(4-Acetyl-3-hydroxy-2-propylphenyl)methoxy]phenyl}-2-methyl-3-(1H-tetrazol-5-yl)-1-propanone], half-maximal inhibition (IC50) was put at 0.0204 µM, the inhibition at 0.01 µM worked out at 35% and the inhibition at 0.03 µM is 58%.
For `CCCc1c(COc2ccc(C(=O)CCCc3nnn[nH]3)cc2)ccc(C(C)=O)c1O` [Example 10, 1-{4-[(4-Acetyl-3-hydroxy-2-propylphenyl)methoxy]-phenyl}-4-(1H-tetrazol-5-yl)-1-butanone], the IC50 was 0.00479 µM, the inhibition at 0.1 µM turned out to be 95%, the inhibition at 0.01 µM was 57% and the inhibition at 0.3 µM is 94%. Further, the inhibition at 0.03 µM was determined as 76% and the inhibition at 0.003 µM came out at 46%.
With `CCCc1c(COc2ccc(C(=O)C(C)(C)Cc3nnn[nH]3)cc2)ccc(C(C)=O)c1O` [Example 12, 1-{4-[(4-Acetyl-3-hydroxy-2-propylphenyl)methoxy]phenyl}-2,2-dimethyl-3-(1H-tetrazol-5-yl)-1-propanone], the IC50 is 0.0513 µM, the inhibition at 0.3 µM was 60% and the inhibition at 0.03 µM was 41%.
Turning to `CCCc1c(COc2ccc(C(=O)CC(C)(C)Cc3nnn[nH]3)cc2)ccc(C(C)=O)c1O` [Example 15, 1-{4-[(4-Acetyl-3-hydroxy-2-propylphenyl)methoxy]phenyl}-3,3-dimethyl-4-(1H-tetrazol-5-yl)-1-butanone], half-maximal inhibition (IC50) was put at 0.00324 µM, the inhibition at 0.03 µM came to 91% and the inhibition at 0.003 µM was 50%.
